Key:
[1] = system: WW domains of WWP1 expressed as GST fusion proteins; assay: ELISA based cross affinity mapping, WW domains of WWP1; format: binding, human; details: biotinylated peptide-streptavidin/alkaline phosphatase complex; GST fusion proteins; ELISA
Protocol: (§1) The 16 day mouse embryo cDNA expression library was diluted 1:1000 in SM solution (100 mM NaCl, 8 mM MgSOv4, 50 mM Tris HCl pH 7.5, 0.01% gelatin). To a sterile test tube, 2 μl of diluted mouse embryo library, 100 μl of 10 mM CaCl2, 100 μl of 10 mM MgCl2 and 100 μl of BL21(DE3)pLysE bacterial cells (grown overnight) were added and incubated for 30 minutes at 37° C. The contents of the tube were mixed with 3 ml of 0.6% top agarose, containing […] chloramphenicol, and poured onto a 2xYT plate (90 mm diameter). For a large primary screen, 10–20 plates were prepared with 3×10^4 pfu per plate. After 6 hours incubation at 37° C., a nitrocellulose filter soaked in 10 mM isopropyl-β-D-thiogalactopyranoside (IPTG) was overlaid on each plate and incubated 3–6 hours at 37° C. Before the filters were removed from the plates, they were marked asymmetrically with India ink in a 18 gauge syringe needle. The plates were stored at 4° C. until ready for the secondary screen. The filters were washed with PBS (137 mM NaCl, 2.7 mM KCl, 4.3 mM Na2HPO4, 1.4 mM KH2PO4)-0.05% Triton X-100 three times at room temperature, 15 minutes each wash, and then placed in a plastic bag containing non-specific blocking solution (PBS-2% BSA) for one hour. In the meantime, 1 ml of 1 mM biotinylated peptide in PBS-0.1% Tween 20 was added to 20 ml of 1 mg/ml streptavidin-alkaline phosphatase (SA-AP) in PBS-0.1% Tween 20 and incubated at 4° C. for 30 minutes. […] Excess biotin-binding sites would then be blocked by addition of 500 pmol biotin. […] Ten μl of 0.1 mM biotin would then be added, and the solution incubated for an additional 15 min.
(§2) To determine the ligand preferences of the novel WW omain-containing clones described in Sections 6.1 and 6.1.1, as well as addressing the issue of whether peptides containing PPPPY (SEQ ID NO:3)-like motifs derived from a variety of proteins could also serve as recognition units and bind to these clones, a cross affinity mapping experiment was performed (FIGS. 15A–D). The peptides shown in FIGS. 15A–D were synthesized, biotinylated, complexed with streptavidin-alkaline phosphatase, and tested in an ELISA based assay for their ability to bind to the twelve individual novel WW domains of WWP1, WWP2, WWP3 and WWP4 which were expressed as GST fusion proteins. The ELISA based cross-affinity experiments were performed essentially as described by Sparks et al. (1996, Proc. Natl. Acad. Sci. 93:1540–1544) with the following modifications. Briefly, microtiter wells were coated with 1–5 μg of fusion protein in 100 mM NaHCO3, blocked with SuperBlock TBS (Pierce) and washed four times with PBS, 0.05% Tween 20. Specific peptide-streptavidin/alkaline phosphatase complexes were added as above and unbound complexes washed five times with PBS, 0.05% Tween 20. Following addition of PNP substrate (p-nitrophenyl phosphate, Kirkegard & Perry Labs), peptide binding was quantitated after 30 min. at O.D. 405 nm. Relative binding measurements from three independent determinations were assigned to a scale as follows: O.D. units 0–0.5=(−), 0.5–1.0=(+), 1.0–2.0=(++), 2.0–3.0=(+++), >3.0=(++++). Peptide binding to human Fyn and Lyn SH3 and SH2 domains was assessed by a filter binding assay (see Section 6.1 and Sparks et al., 1996, Proc. Natl. Acad. Sci 93:1540–1544). Peptide sequences used in cross-affinity experiments correspond to segments of the following genes: RasGap (Database accession # P20936), AP-2 (P05549), p53BP-2 (U09582), IL-6Rα (P22272), voltage-gated chloride channel CLCN5 (X91906), IL-2Rγ (D111086), RSV (D10652), HTLV-1 (D13784), β-dystroglycan (L19711), Formin (X53599), amiloride-sensitive epithelial Na^+ channel ENaCα (P37089), ENaCβ (X87159) and ENaCγ (X87160), muscarinic acetylcholine receptor M4 AChR (P08173), and c-Abl (P00522). Src and Crk SH3 binding peptide sequences were derived from a phage display random peptide library screen (Section 6.1 and Sparks et al., 1996, Proc. Natl. Acad. Sci. 93:1540–1544).

[2] = system: WW domains of WWP2 expressed as GST fusion proteins; assay: ELISA based cross affinity mapping, WW domains of WWP2; format: binding, human; details: biotinylated peptide-streptavidin/alkaline phosphatase complex; GST fusion proteins; ELISA
Protocol: as §1, §2

[3] = system: WW domains of WWP4 expressed as GST fusion proteins; assay: ELISA based cross affinity mapping, WW domains of WWP4; format: binding, human; details: biotinylated peptide-streptavidin/alkaline phosphatase complex; GST fusion proteins; ELISA
Protocol: as §1, §2

[4] = molecular target: T1, WWP3 WW domain expressed as GST fusion protein (Homo sapiens, UniProt Q96QZ7); assay: ELISA based cross affinity mapping, WWP3 WW domain; format: binding; details: biotinylated peptide-streptavidin/alkaline phosphatase complex
T1 construct: made in house
T1 sequence (Q96QZ7 300-337 limits assumed): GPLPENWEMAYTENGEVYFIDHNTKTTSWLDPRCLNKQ
Protocol: The 16 day mouse embryo cDNA expression library was diluted 1:1000 in SM solution (100 mM NaCl, 8 mM MgSOv4, 50 mM Tris HCl pH 7.5, 0.01% gelatin). To a sterile test tube, 2 μl of diluted mouse embryo library, 100 μl of 10 mM CaCl2, 100 μl of 10 mM MgCl2 and 100 μl of BL21(DE3)pLysE bacterial cells (grown overnight) were added and incubated for 30 minutes at 37° C. The contents of the tube were mixed with 3 ml of 0.6% top agarose, containing […] chloramphenicol, and poured onto a 2xYT plate (90 mm diameter). For a large primary screen, 10–20 plates were prepared with 3×10^4 pfu per plate. After 6 hours incubation at 37° C., a nitrocellulose filter soaked in 10 mM isopropyl-β-D-thiogalactopyranoside (IPTG) was overlaid on each plate and incubated 3–6 hours at 37° C. Before the filters were removed from the plates, they were marked asymmetrically with India ink in a 18 gauge syringe needle. The plates were stored at 4° C. until ready for the secondary screen. The filters were washed with PBS (137 mM NaCl, 2.7 mM KCl, 4.3 mM Na2HPO4, 1.4 mM KH2PO4)-0.05% Triton X-100 three times at room temperature, 15 minutes each wash, and then placed in a plastic bag containing non-specific blocking solution (PBS-2% BSA) for one hour. In the meantime, 1 ml of 1 mM biotinylated peptide in PBS-0.1% Tween 20 was added to 20 ml of 1 mg/ml streptavidin-alkaline phosphatase (SA-AP) in PBS-0.1% Tween 20 and incubated at 4° C. for 30 minutes. As an alternative method of forming multivalent complexes, 50 pmol biotinylated peptide could have been incubated with 2 μg SA-AP (for a biotin:biotin-binding site ratio of 1:1). Excess biotin-binding sites would then be blocked by addition of 500 pmol biotin. As a further alternative, 31.2 μl of 1 mg/ml SA-AP could have been incubated with 15 μl of 0.1 mM biotinylated peptide for 30 min at 4° C. Ten μl of 0.1 mM biotin would then be added, and the solution incubated for an additional 15 min.
as §2, with “Peptide sequences used in cross-affinity experiments correspond to segments of the following genes: RasGap (Database accession # P20936), AP-2 (P05549), p53BP-2 (U09582), IL-6Rα (P22272), voltage-gated chloride channel CLCN5 (X91906), IL-2Rγ (D111086), RSV (D10652), HTLV-1 (D13784), β-dystroglycan (L19711), Formin (X53599), amiloride-sensitive epithelial Na^+ channel ENaCα (P37089), ENaCβ (X87159) and ENaCγ (X87160), muscarinic acetylcholine receptor M4 AChR (P08173), and c-Abl (P00522). Src and Crk SH3 binding peptide sequences were derived from a phage display random peptide library screen (Section 6.1 and Sparks et al., 1996, Proc. Natl. Acad. Sci. 93:1540–1544).” left out

[5] = system: twelve individual novel WW domains of WWP1, WWP2, WWP3 and WWP4; assay: ELISA based cross affinity mapping, whole panel of novel WW domains; format: binding, human; details: biotinylated peptide-streptavidin/alkaline phosphatase complex, GST fusion proteins
Protocol: as §1, §2

binding to WW domains of WWP1 [1] | binding to WW domains of WWP2 [2] | binding to WW domains of WWP4 [3] | Substance | binding to WWP3 WW domain [4] | binding to the novel WW domains (WWP1, WWP2, WWP3, WWP4 panel) [5]
do not bind | do not bind | do not bind | ENaCβ-Y618H: mutant ENaCβ peptide, Liddle syndrome missense substitution, PPPNY to PPPNH (PGTPPPNHDSLRL) | – | –
– | – | – | IL-6R: peptide from interleukin receptor IL-6R (TTSPPPPPYS) | – | bound to WW domains from one or more of the four novel clones
absolutely essential for binding | absolutely essential for binding | absolutely essential for binding | WBP-2A-Pro4: WBP-2A peptide with substitution of the third proline residue (SGSGYVQPPPAPYPGPM) | absolutely essential for binding | –
do not bind | do not bind | do not bind | ENaCβ-P616L: mutant ENaCβ peptide, Liddle syndrome missense substitution, PPPNY to PPLNY (PGTPPLNYDSLRL) | – | –
abolished binding activity | abolished binding activity | abolished binding activity | bWW062: alanine substitution variant of the tyrosine residue of the PPPPY-like domain of WWP2 (NRLDLPPAKSYEQ) | – | –
– | is not | is not | WBP-2A-Pro3: WBP-2A peptide with substitution of the second proline (SGSGYVQPPAPPYPGPM) | – | –
– | – | – | β-dystroglycan-1: peptide from dystrophin interacting molecule β-dystroglycan (L19711) (PLPPPEYPNQ) | – | bound to WW domains from one or more of the four novel clones
abolished binding activity | abolished binding activity | abolished binding activity | bWW060: alanine substitution variant of the tyrosine residue of the PPPPY-like domain of WWP4 (NRLDLPPAETFED) | – | –
– | – | – | IL-2R: peptide from interleukin receptor IL-2R (YWAPPCYTLK) | – | bound to WW domains from one or more of the four novel clones
– | – | – | RasGap: peptide with PPPPY-like motif from a segment of RasGap (P20936) (PLPPPPYLPP) | – | bound to WW domains from one or more of the four novel clones
– | – | – | β dystroglycan-2: second peptide from dystrophin interacting molecule β-dystroglycan (YRSPPPYVPP) | – | bound to WW domains from one or more of the four novel clones
– | – | – | AP-2: peptide with PPPPY-like motif from AP-2 transcription factor (P05549) (PYFPPPYQPI) | – | bound to WW domains from one or more of the four novel clones
– | – | – | p53BP-2: peptide with PPPPY-like motif from p53 binding protein-2 (U09582) (YPPYPPPPYPSG) | – | bound to WW domains from one or more of the four novel clones

Substance | binding to WW domains of WWP1 [1] | binding to WW domains of WWP2 [2] | binding to WW domains of WWP4 [3] | binding to WWP3 WW domain [4] | binding to the novel WW domains (WWP1, WWP2, WWP3, WWP4 panel) [5]
biotin - PGTPPPKYNTLRL [ENaCγ] | positive interaction | positive interaction | positive interaction | positive interaction | –
biotin - PGTPPPNYDSLRL [ENaCβ] | positive interaction | positive interaction | positive interaction | positive interaction | –

From patent US7279548B2, “Identification and isolation of novel polypeptides having WW domains and methods of using same” (Cytogen Corporation, priority 1996, dated 2007)
